Reference: patent US6383773B2, “Penicillin conversion” (Massachusetts Institute of Technology, priority 1998, dated 2002)

What was measured:
[1] = tested on: S. clavuligerus NP1 resting cells; assay: Penicillin G ring expansion by resting cells, paper disc-agar diffusion bioassay (Example 1); format: cell-based; settings: for DAOG produced: after 3-6 hours of reaction
Description: Resting Cells: From a seed culture (in MST), 0.5 ml was transferred to new flasks containing 40 ml of the same medium. Cells were grown at 30° C., 250 rpm for 24 h. Mycelia from each flask were washed twice, and finally, resuspended in 10 ml of distilled water. Four ml of this cell suspension were used in the reaction mixture.
Ring Expansion Reaction: We defined ring expansion reaction conditions as modifications of the standard reaction mixture for expandase reactions described by Maeda et al. (Maeda et al., Enzyme Microb. Technol. 17:231-34, 1995) except that penicillin G was used a substrate instead of penicillin N. Additions were made following the order established by Shen et al. (Shen et al., Enzyme Microb. Technol. 6:402-404, 1984. Reaction mixtures were incubated in test tubes (cell-free extract) or 250 ml baffled flasks (resting cells) at 220 rpm, 30° C. Reactions containing the protein extract were stopped at various times (see Table 1 and Figure Legends) by mixing 0.5 ml of assay solution with 0.5 ml of methanol. In the case of resting cells, samples were centrifuged to remove cells and supernatants were transferred to new tubes. Expandase activity was detected by paper disc-agar diffusion bioassay.
Detection of Expandase Activity: As mentioned above, expandase activity was detected by assaying production of a growth-inhibitory zone in a paper disc-agar diffusion bioassay. Paper discs were saturated with 200 μl of the reaction mixture (cell-free extracts or supernatant (resting cells) as follows. Two discs were superimposed and four 50 μl samples were applied. After each application, the discs were allowed to dry for 20 min at 37° C. under a laminar hood and, finally, they were placed on LB (1% tryptone, 0.5% NaCl, 0.5% yeast extract, 0.1% glucose) 0.8% agar medium seeded with E. coli ESS (a β-lactam supersensitive mutant), and the plates were incubated overnight at 37° C. The formation of DAOG and/or other cephalosporin(s) was determined by including 50,000 IU/ml of penicillinase (Difco Bacto penase concentrate, Difco Laboratories, Detroit, Mich.) in the assay plates. This penicillinase is a narrow spectrum β-lactamase that attacks penicillins but not cephalosporins. The diameters of zones of growth inhibition were measured and quantified with a calibration curve using DAOG as standard.

[2] = molecular target: T1, expandase from N. lactamdurans (Amycolatopsis lactamdurans, UniProt Q03047); assay: Ring expansion by cell-free extracts of S. lividans containing pUL702-202a (Example 7); format: biochemical; settings: S. lividans pUL702-202a cell-free extract 6 mg/ml protein, substrate 5.6 mM, after 2 h of reaction
T1 construct: made in house; host or cells: S. lividans 1326 transformed with pUL702-202a, crude cell-free extract
Description: (§1) Microorganism, Medium and Culture Conditions: S. lividans 1326 was used in all experiments. Cultures were grown in 250 ml baffled flasks containing 40 ml of MST medium. Each flask was inoculated with 50 μl of a spore suspension (prepared and stored at −80° C. in 20% glycerol) and incubated at 30° C., 250 rpm, for 48 h.
(§2) Plasmids: The plasmid pUL702-202a was a gift from J. F. Martin (University of León, Spain). This vector harboured a 4.3 Kb BglII fragment containing the epimerase and expandase genes from Nocardia lactamdurans inserted at the BglII site on pIJ702. The plasmid pHJ11 was constructed by cloning a 3 Kb BglII fragment containing the expandase gene from S. clavuligerus 3585 into pIJ702 at the BglII site.
(§3) Ring Expansion Reaction: The ring expansion mixture contained 1.8 mM FeSO4, 1.28 mM α-ketoglutarate, 6 mg/ml protein (cell-free extract), 8 mM KCl, 8 mM MgSO4, 14 mM DTT and 50 mM TrisHCl (pH 7.4) in a final volume of 2.5 ml. Substrate concentration was 5.6 mM. Additions were made following the order established by Shen et al. (Enzyme Microb. Technol. 6:402-404, 1984). Reaction mixtures were incubated in test tubes at 220 rpm, 30° C. At different times, 0.5 ml samples were taken and the reaction was stopped by adding 0.5 ml of methanol. […] Biotransformation activity was detected by paper disc-agar diffusion bioassay. […]

[3] = molecular target: T2, expandase from S. clavuligerus (Streptomyces clavuligerus, UniProt P18548); assay: Ring expansion by cell-free extracts of S. lividans transformant pHJ11 (Example 7); format: biochemical; settings: pHJ11 cell-free extract 6 mg/ml protein, substrate 5.6 mM, after 4 h of reaction
T2 construct: made in house; host or cells: S. lividans 1326 transformed with pHJ11, crude cell-free extract
Description: as §1, §2, §3

C. acremonium expandase = molecular target: T3, C. acremonium expandase (Hapsidospora chrysogena, UniProt P11935); settings: cited from earlier work
T3 sequence (P11935 1-332): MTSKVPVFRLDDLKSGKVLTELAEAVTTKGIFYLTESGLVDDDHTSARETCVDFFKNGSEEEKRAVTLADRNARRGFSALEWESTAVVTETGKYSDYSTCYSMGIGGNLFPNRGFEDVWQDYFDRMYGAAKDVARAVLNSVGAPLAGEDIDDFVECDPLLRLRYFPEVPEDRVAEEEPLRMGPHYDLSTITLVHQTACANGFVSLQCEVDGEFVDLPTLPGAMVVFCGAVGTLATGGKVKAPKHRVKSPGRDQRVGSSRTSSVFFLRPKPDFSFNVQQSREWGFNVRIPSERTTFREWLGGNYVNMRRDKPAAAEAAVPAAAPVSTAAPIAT

T1 sequence (Q03047 whole entry): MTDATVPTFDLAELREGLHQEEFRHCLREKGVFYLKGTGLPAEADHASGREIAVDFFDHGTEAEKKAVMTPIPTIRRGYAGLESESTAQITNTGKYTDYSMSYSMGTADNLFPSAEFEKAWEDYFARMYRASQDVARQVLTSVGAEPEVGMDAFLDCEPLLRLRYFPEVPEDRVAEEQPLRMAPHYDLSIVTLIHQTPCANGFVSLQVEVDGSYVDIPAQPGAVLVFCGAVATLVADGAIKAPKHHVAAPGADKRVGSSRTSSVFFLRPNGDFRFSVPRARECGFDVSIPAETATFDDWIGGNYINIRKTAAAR
T2 sequence (P18548 whole entry): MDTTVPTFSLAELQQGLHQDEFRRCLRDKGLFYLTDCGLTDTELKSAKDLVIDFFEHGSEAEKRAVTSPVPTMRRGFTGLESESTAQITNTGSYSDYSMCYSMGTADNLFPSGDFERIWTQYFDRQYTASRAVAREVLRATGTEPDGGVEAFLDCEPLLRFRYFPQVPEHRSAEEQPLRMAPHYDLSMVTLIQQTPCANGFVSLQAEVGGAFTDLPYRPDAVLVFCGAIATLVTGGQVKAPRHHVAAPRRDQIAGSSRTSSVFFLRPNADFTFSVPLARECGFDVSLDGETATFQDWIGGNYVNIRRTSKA

With `CC1(C)S[C@@H]2[C@H](NC(=O)Cc3ccccc3)C(=O)N2[C@H]1C(=O)O` [Penicillin G, penicillin G] the “μg DAOG/ml” value ([1]; resting cells 13 mg/ml dry cell weight, 2 mg/ml penicillin G, 2 h, cofactor omitted: ATP (0.7 mM)) was 10.0 μg DAOG/ml, the “μg DAOG/ml” value ([1]; resting cells 13 mg/ml dry cell weight, 2 mg/ml penicillin G, 2 h, cofactor omitted: Ascorbic acid (4 mM)) was 3.0 μg DAOG/ml and the “μg DAOG/ml” value ([1]; resting cells 13 mg/ml dry cell weight, 2 mg/ml penicillin G, 2 h, cofactor omitted: DTT (16 mM)) was 15.5 μg DAOG/ml. For the same compound, the “μg DAOG/ml” value ([1]; resting cells 13 mg/ml dry cell weight, 2 mg/ml penicillin G, 2 h, cofactor omitted: FeSO4.7H2O (1.8 mM)) was 3.2 μg DAOG/ml, the “μg DAOG/ml” value ([1]; resting cells 13 mg/ml dry cell weight, 2 mg/ml penicillin G, 2 h, cofactor omitted: KCl (8 mM)) was 11.5 μg DAOG/ml and the “μg DAOG/ml” value ([1]; resting cells 13 mg/ml dry cell weight, 2 mg/ml penicillin G, 2 h, cofactor omitted: MgSO4.7H2O (8 mM)) was 10.1 μg DAOG/ml. The “μg DAOG/ml” value ([1]; resting cells 13 mg/ml dry cell weight, 2 mg/ml penicillin G, 2 h, cofactor omitted: None) was 10.5 μg DAOG/ml, the “μg DAOG/ml” value ([1]; resting cells 13 mg/ml dry cell weight, 2 mg/ml penicillin G, 2 h, cofactor omitted: α-ketoglutarate (1.28 mM)) was 3.7 μg DAOG/ml and the DAOG produced ([1]; resting cells, Maeda et al. reaction conditions (0.04 mM FeSO4, 0.64 mM α-ketoglutarate)) was “about 6 μg/ml”. The DAOG produced ([1]; resting cells, inventive conditions (1.8 mM FeSO4, 1.28 mM α-ketoglutarate)) was “about 19 μg/ml”, the “DAOG produced relative to complete reaction” value ([1]; resting cells, two hours, omission of Fe2+, α-ketoglutarate, or ascorbic acid) was “about 30%” and the “μg DAOG/ml” value ([1]; resting cells, ATP concentration 0 (mM)) was 6.6 μg DAOG/ml. For the same compound, the “μg DAOG/ml” value ([1]; resting cells, ATP concentration 0.14 (mM)) was 6.4 μg DAOG/ml, the “μg DAOG/ml” value ([1]; resting cells, ATP concentration 0.35 (mM)) was 6.4 μg DAOG/ml and the “μg DAOG/ml” value ([1]; resting cells, ATP concentration 0.7 (mM)) was 6.6 μg DAOG/ml. The “μg DAOG/ml” value ([1]; resting cells, ATP concentration 2.4 (mM)) was 6.6 μg DAOG/ml, the “μg DAOG/ml” value ([1]; resting cells, ATP concentration 3.5 (mM)) was 4.7 μg DAOG/ml and the “μg DAOG/ml” value ([1]; resting cells, Ascorbate concentration 0 (mM)) was 2.4 μg DAOG/ml. The “μg DAOG/ml” value ([1]; resting cells, Ascorbate concentration 0.8 (mM)) was 4.0 μg DAOG/ml, the “μg DAOG/ml” value ([1]; resting cells, Ascorbate concentration 2 (mM)) was 6.0 μg DAOG/ml and the “μg DAOG/ml” value ([1]; resting cells, Ascorbate concentration 4 (mM)) was 6.4 μg DAOG/ml. For the same compound, the “μg DAOG/ml” value ([1]; resting cells, Ascorbate concentration 8 (mM)) was 6.4 μg DAOG/ml, the “increase of DAOG production” value ([1]; resting cells, omission of DTT) was “approximately 50%” and the production of cephalosporins [2] was “approximately 8 μg/ml”. The production of cephalosporins [3] was “about 7 μg/ml”, the “substrate for expandase activity” value (C. acremonium expandase; crude extracts (Kohsaka et al. 1976; Demain et al.)) was “not” and the ring expansion (C. acremonium expandase; partially purified enzyme (Kupka et al. 1983)) was “does not expand”.
